Like-named read-outs stand apart in the source and are kept apart here.
Tests used:
[1] = tested on: E. coli strains bearing mar, soxS or robA plasmids; format: cell-based
Description: Organic solvent tolerance mediated by the marA, soxS, robA and acrAB loci of E. coli is described in White et al. (J. Bacteriol. 179:6122-6126, 1997).

[2] = values in parentheses in column heads; cited from earlier work
[3] = tested on: marA mRNA; assay: Northern blot analysis of marA mRNA with inducer salicylate; format: cell-based, E. coli; settings: Mar mutant AG102, mutants AP5 and NP3.5 GP
Description: Over expression was also seen in mutant APS3 (data not shown). […] We concluded that AP5, NP3.5GP, and APS3, but not AP1, were probably Mar mutants.

[4] = AG100-B (acrR mutant), no plasmid
[5] = AG100K (marCORAB::kan), no plasmid
[6] = AG102 (marR mutation), no plasmid
[7] = AG102-A (marRl, ΔacrAB), no plasmid

C1CCCCC1 [cyclohexane]
Growth in presence of organic solvent ([1]; AG100 (wild-type), no plasmid): − | Growth in presence of organic solvent ([1]; AG100, plasmid pMAK-TU1): − | Growth in presence of organic solvent ([1]; AG100, plasmid pMAK-TU1 & TU2): + + | Growth in presence of organic solvent ([1]; AG100, plasmid pMAK-TU2): + ((+) visible growth(≦100 colonies)) | Growth in presence of organic solvent ([1]; AG100, plasmid pSMarAB): + ((+) visible growth(≦100 colonies)) | Growth in presence of organic solvent ([1]; AG100, plasmid pSRob): + + | Growth in presence of organic solvent ([1]; AG100, plasmid pSXS): + + | Growth in presence of organic solvent ([1]; AG100-A (ΔacrAB), no plasmid): − | Growth in presence of organic solvent [1, 4]: + ((+) visible growth(≦100 colonies)) | Growth in presence of organic solvent [1, 5]: − | Growth in presence of organic solvent ([1]; AG100K, plasmid pMAK-TU1): − | Growth in presence of organic solvent ([1]; AG100K, plasmid pMAK-TU2): + ((+) visible growth(≦100 colonies)) | Growth in presence of organic solvent ([1]; AG100K, plasmid pMAK-TUI & TU2): + + | Growth in presence of organic solvent ([1]; AG100K, plasmid pSMarAB): + ((+) visible growth(≦100 colonies)) | Growth in presence of organic solvent ([1]; AG100K, plasmid pSRob): + + | Growth in presence of organic solvent ([1]; AG100K, plasmid pSXS): + + | Growth in presence of organic solvent [1, 6]: + + | Growth in presence of organic solvent [1, 7]: − | Growth in presence of organic solvent ([1]; AG102-A, plasmid pSMarAB): − | Growth in presence of organic solvent ([1]; AG102-A, plasmid pSRob): − | Growth in presence of organic solvent ([1]; AG102-A, plasmid pSXS): − | Growth in presence of organic solvent ([1]; DJ901 (ΔsoxRS), no plasmid): − | Growth in presence of organic solvent ([1]; DJ901, plasmid pMAK-TU1): − | Growth in presence of organic solvent ([1]; DJ901, plasmid pMAK-TU1 & TU2): + + | Growth in presence of organic solvent ([1]; DJ901, plasmid pMAK-TU2): + ((+) visible growth(≦100 colonies)) | Growth in presence of organic solvent ([1]; DJ901, plasmid pSMarAB): + ((+) visible growth(≦100 colonies)) | Growth in presence of organic solvent ([1]; DJ901, plasmid pSRob): + + | Growth in presence of organic solvent ([1]; DJ901, plasmid pSXS): + + | Growth in presence of organic solvent ([1]; GC4468 (wild-type), no plasmid): − | Growth in presence of organic solvent ([1]; GC4468, plasmid pMAK-TU1): − | Growth in presence of organic solvent ([1]; GC4468, plasmid pMAK-TU1 & TU2): + + | Growth in presence of organic solvent ([1]; GC4468, plasmid pMAK-TU2): + ((+) visible growth(≦100 colonies)) | Growth in presence of organic solvent ([1]; GC4468, plasmid pSMarAB): + ((+) visible growth(≦100 colonies)) | Growth in presence of organic solvent ([1]; GC4468, plasmid pSRob): + + | Growth in presence of organic solvent ([1]; GC4468, plasmid pSXS): + + | Growth in presence of organic solvent ([1]; JHC1069 (cfxB1), no plasmid): + + | Growth in presence of organic solvent ([1]; JTG1078 (soxR105), no plasmid): + + | Growth in presence of organic solvent ([1]; MCH164 (Δmar), no plasmid): − | Growth in presence of organic solvent ([1]; MCH164, plasmid pMAK-TU1): − | Growth in presence of organic solvent ([1]; MCH164, plasmid pMAK-TU1 & TU2): + + | Growth in presence of organic solvent ([1]; MCH164, plasmid pMAK-TU2): − | Growth in presence of organic solvent ([1]; MCH164, plasmid pSMarAB): − | Growth in presence of organic solvent ([1]; MCH164, plasmid pSRob): − | Growth in presence of organic solvent ([1]; MCH164, plasmid pSXS): − | Growth in presence of organic solvent ([1]; RA4468 (robA::kan), no plasmid): − | Growth in presence of organic solvent ([1]; RA4468, plasmid pMAK-TU1): − | Growth in presence of organic solvent ([1]; RA4468, plasmid pMAK-TU1 & TU2): + + | Growth in presence of organic solvent ([1]; RA4468, plasmid pMAK-TU2): + ((+) visible growth(≦100 colonies)) | Growth in presence of organic solvent ([1]; RA4468, plasmid pSMarAB): + ((+) visible growth(≦100 colonies)) | Growth in presence of organic solvent ([1]; RA4468, plasmid pSRob): + + | Growth in presence of organic solvent ([1]; RA4468, plasmid pSXS): + + | log Pow [2]: cyclohexane (3.4)

CCCCCC [n-hexane]
Growth in presence of organic solvent ([1]; AG100 (wild-type), no plasmid): + + | Growth in presence of organic solvent ([1]; AG100, plasmid pMAK-TU1): + + | Growth in presence of organic solvent ([1]; AG100, plasmid pMAK-TU1 & TU2): + + | Growth in presence of organic solvent ([1]; AG100, plasmid pMAK-TU2): + + | Growth in presence of organic solvent ([1]; AG100, plasmid pSMarAB): + + | Growth in presence of organic solvent ([1]; AG100, plasmid pSRob): + + | Growth in presence of organic solvent ([1]; AG100, plasmid pSXS): + + | Growth in presence of organic solvent ([1]; AG100-A (ΔacrAB), no plasmid): − | Growth in presence of organic solvent [1, 4]: + + | Growth in presence of organic solvent [1, 5]: + ((+) visible growth(≦100 colonies)) | Growth in presence of organic solvent ([1]; AG100K, plasmid pMAK-TU1): + ((+) visible growth(≦100 colonies)) | Growth in presence of organic solvent ([1]; AG100K, plasmid pMAK-TU2): + + | Growth in presence of organic solvent ([1]; AG100K, plasmid pMAK-TUI & TU2): + + | Growth in presence of organic solvent ([1]; AG100K, plasmid pSMarAB): + + | Growth in presence of organic solvent ([1]; AG100K, plasmid pSRob): + + | Growth in presence of organic solvent ([1]; AG100K, plasmid pSXS): + + | Growth in presence of organic solvent [1, 6]: + + | Growth in presence of organic solvent [1, 7]: − | Growth in presence of organic solvent ([1]; AG102-A, plasmid pSMarAB): − | Growth in presence of organic solvent ([1]; AG102-A, plasmid pSRob): − | Growth in presence of organic solvent ([1]; AG102-A, plasmid pSXS): − | Growth in presence of organic solvent ([1]; DJ901 (ΔsoxRS), no plasmid): + + | Growth in presence of organic solvent ([1]; DJ901, plasmid pMAK-TU1): + + | Growth in presence of organic solvent ([1]; DJ901, plasmid pMAK-TU1 & TU2): + + | Growth in presence of organic solvent ([1]; DJ901, plasmid pMAK-TU2): + + | Growth in presence of organic solvent ([1]; DJ901, plasmid pSMarAB): + + | Growth in presence of organic solvent ([1]; DJ901, plasmid pSRob): + + | Growth in presence of organic solvent ([1]; DJ901, plasmid pSXS): + + | Growth in presence of organic solvent ([1]; GC4468 (wild-type), no plasmid): + + | Growth in presence of organic solvent ([1]; GC4468, plasmid pMAK-TU1): + + | Growth in presence of organic solvent ([1]; GC4468, plasmid pMAK-TU1 & TU2): + + | Growth in presence of organic solvent ([1]; GC4468, plasmid pMAK-TU2): + + | Growth in presence of organic solvent ([1]; GC4468, plasmid pSMarAB): + + | Growth in presence of organic solvent ([1]; GC4468, plasmid pSRob): + + | Growth in presence of organic solvent ([1]; GC4468, plasmid pSXS): + + | Growth in presence of organic solvent ([1]; JHC1069 (cfxB1), no plasmid): + + | Growth in presence of organic solvent ([1]; JTG1078 (soxR105), no plasmid): + + | Growth in presence of organic solvent ([1]; MCH164 (Δmar), no plasmid): + ((+) visible growth(≦100 colonies)) | Growth in presence of organic solvent ([1]; MCH164, plasmid pMAK-TU1): + ((+) visible growth(≦100 colonies)) | Growth in presence of organic solvent ([1]; MCH164, plasmid pMAK-TU1 & TU2): + + | Growth in presence of organic solvent ([1]; MCH164, plasmid pMAK-TU2): + + | Growth in presence of organic solvent ([1]; MCH164, plasmid pSMarAB): + + | Growth in presence of organic solvent ([1]; MCH164, plasmid pSRob): + + | Growth in presence of organic solvent ([1]; MCH164, plasmid pSXS): + + | Growth in presence of organic solvent ([1]; RA4468 (robA::kan), no plasmid): + ((+) visible growth(≦100 colonies)) | Growth in presence of organic solvent ([1]; RA4468, plasmid pMAK-TU1): + ((+) visible growth(≦100 colonies)) | Growth in presence of organic solvent ([1]; RA4468, plasmid pMAK-TU1 & TU2): + + | Growth in presence of organic solvent ([1]; RA4468, plasmid pMAK-TU2): + + | Growth in presence of organic solvent ([1]; RA4468, plasmid pSMarAB): + + | Growth in presence of organic solvent ([1]; RA4468, plasmid pSRob): + + | Growth in presence of organic solvent ([1]; RA4468, plasmid pSXS): + +

CCCCC [n-pentane]
Growth in presence of organic solvent ([1]; AG102, Mar mutant of AG100, data not shown): grew

O=C(O)c1ccccc1O [salicylate]
Effect of inducer on over expression of marA mRNA [3]: enhanced

From patent US6448006B1, “Methods and compositions for reducing bacterial tolerance to antibacterials disinfectants and organic solvents” (priority 1997, dated 2002)
